Tests used:
HepG2 [1] = test: cells; conditions: Homo sapiens
Description: Anticancer activity against human HepG2 cells assessed as inhibition of cell growth by MTT assay

HCT-116 [2] = test: cells; conditions: Homo sapiens
Description: Anticancer activity against human HCT-116 cells assessed as inhibition of cell growth by MTT assay

MCF7 [3] = test: Anticancer activity against human MCF7 cells assessed as inhibition of cell growth by MTT assay; type: functional, cell-based
A549 [4] = test: Anticancer activity against human A549 cells assessed as inhibition of cell growth incubated for 24 hrs by MTT assay; type: functional, cell-based; conditions: A549, 24 h
MCF7 [5] = test: Anticancer activity against human MCF7 cells assessed as inhibition of cell growth incubated for 24 hrs by MTT assay; type: functional, cell-based; conditions: MCF7, 24 h
HT-29 [6] = test: Anticancer activity against human HT-29 cells assessed as inhibition of cell growth; type: functional, cell-based
P388 [7] = test: Anticancer activity against mouse P388 cells assessed as inhibition of cell growth; type: functional, cell-based
A549 [8] = test: Anticancer activity against human A549 cells assessed as inhibition of cell growth; type: functional, cell-based
P388 [9] = test: Anticancer activity against mouse P388 cells assessed as reduction in cell growth; type: functional, cell-based
BT-474 = test: Anticancer activity against human BT-474 cells assessed as cell growth inhibition incubated for 48 hrs by MTT assay; type: functional, cell-based; conditions: BT-474, 48 h
P388 [10] = test: Anticancer activity against mouse P388 cells assessed as inhibition of cell growth by dilution assay; type: functional, cell-based
HT-29 [11] = test: Anticancer activity against human HT-29 cells assessed as inhibition of cell growth by dilution assay; type: functional, cell-based
A549 [12] = test: Anticancer activity against human A549 cells assessed as inhibition of cell growth by dilution assay; type: functional, cell-based
MDA-MB-231 [13] = test: Antiproliferative activity against human MDA-MB-231 cells assessed as cell growth inhibition incubated for 72 hrs by SRB assay; type: functional, cell-based; conditions: MDA-MB-231, 72 h
HT-29 [14] = test: Antiproliferative activity against human HT-29 cells assessed as cell growth inhibition incubated for 72 hrs by SRB assay; type: functional, cell-based; conditions: HT-29, 72 h
A549 [15] = test: Antiproliferative activity against human A549 cells assessed as cell growth inhibition incubated for 72 hrs by SRB assay; type: functional, cell-based; conditions: A549, 72 h
HepG2 [16] = test: Anticancer activity against human HepG2 cells assessed as inhibition of cell growth; type: functional, cell-based
HCT-116 [17] = test: Antiproliferative activity against human HCT-116 cells assessed as cell viability measured after 24 hrs by MTT assay; type: functional, cell-based; conditions: HCT-116, 24 h
MDA-MB-231 [18] = test: Anticancer activity against human MDA-MB-231 cells assessed as cell viability measured after 24 hrs by MTT assay; type: functional, cell-based; conditions: MDA-MB-231, 24 h
HeLa [19] = test: Antiproliferative activity against human HeLa cells assessed as cell viability measured after 24 hrs by MTT assay; type: functional, cell-based
HT-29 [20] = test: Anticancer activity against human HT-29 cells assessed as cell growth inhibition by crystal violet staining based assay; type: functional
OVCAR-3 = test: Anticancer activity against human OVCAR-3 cells assessed as cell growth inhibition by crystal violet staining based assay; type: functional
MM1.S = test: Anticancer activity against human MM1.S cells assessed as cell growth inhibition by MTT assay; type: functional, cell-based
L5178Y [21] = test: Anticancer activity against mouse L5178Y assessed as cell growth inhibition by [3H]-thymidine assay relative to control; type: functional
L5178Y [22] = test: Anticancer activity against mouse L5178Y assessed as cell growth inhibition by [3H]-thymidine assay; type: functional, cell-based
MCF7 [23] = test: Anticancer activity against human MCF7 cells assessed as inhibition of cell growth; type: functional, cell-based
HeLa [24] = test: Anticancer activity against human HeLa cells assessed as inhibition of cell growth; type: functional, cell-based
Daoy = test: Anticancer activity against human Daoy cells assessed as inhibition of cell growth; type: functional, cell-based
HT-29 [25] = test: Anticancer activity against human HT-29 cells assessed as cell growth inhibition; type: functional, cell-based
P388 [26] = test: Anticancer activity against mouse P388 cells assessed as cell growth inhibition; type: functional, cell-based
A549 [27] = test: Anticancer activity against human A549 cells assessed as cell growth inhibition; type: functional, cell-based

SMILES: CC(=O)O[C@H]1C[C@H]2[C@@](C)(CCC3C(C)(C)CCC[C@@]32C)[C@@H]2C[C@@H](OC(C)=O)C(C(C)=O)=C[C@@]12C (stereo partly specified)
- IC50 (HepG2 [1]): 2.6 nM
- IC50 (HCT-116 [2]): 2.7 nM
- IC50 (MCF7 [3]): 4.6 nM

SMILES: C#C/C=C\CCCCCCCCCCC#CCCC(=O)NCCc1ccccc1
- IC50 (A549 [4]): 24200 nM
- IC50 (MCF7 [5]): 18000 nM

SMILES: C=C(CCC[C@@]1(C)CC[C@H]([C@@H](C)C(=O)OC)OO1)CCC1(O)C(=C)CCCC1(C)C (stereo partly specified)
- IC50 (HT-29 [6]): > 2.4 nM
- IC50 (P388 [7]): > 2.4 nM
- IC50 (A549 [8]): > 2.4 nM

SMILES: CC1=CCC[C@H]2[C@](C)(CC3=CC(=O)C=C(O)C3=O)[C@@H](C)CC[C@]12C
- IC50 (P388 [9]): 1.8 nM

SMILES: [O-][N+]12CCC[C@]3(O)CCCCCC[C@@H]4CCN5CCC[C@@H](CCCCCC[C@H](CC1)O[C@@H]32)[C@@H]5O4 (stereo partly specified)
- IC50 (BT-474): 29500 nM

SMILES: CC(=O)O[C@H]1C[C@@H]2[C@@]3(C)CCCC(C)(C)[C@@H]3CC[C@@]2(C)[C@@H]2CC=C(C(C)=O)[C@@H]3[C@H](O)C[C@@]132
- IC50 (HepG2 [1]): 4.7 nM
- IC50 (HCT-116 [2]): 0.6 nM
- IC50 (MCF7 [3]): 2.4 nM

SMILES: CC(=O)O[C@H]1CC[C@]2(C)[C@H]3C[C@@H](O)[C@]4(C)C5=C(CC[C@H]4[C@]3(C)CC[C@H]2C1(C)C)COC5=O
- IC50 (P388 [10]): 2.2 nM
- IC50 (HT-29 [11]): > 2.2 nM
- IC50 (A549 [12]): 2.2 nM

SMILES: NC(=O)c1cnc(-c2c[nH]c3cc(O)ccc23)c2[nH]c3ccc(O)cc3c12
- IC50 (MDA-MB-231 [13]): 42000 nM
- IC50 (HT-29 [14]): 45000 nM
- IC50 (A549 [15]): 35000 nM

SMILES: C/C1=C/C(=O)O[C@@H]2C[C@@H](CC[C@H](C)/C=C\CC1)O[C@@](O)([C@@H]1CS(=O)(=O)C(=O)N1O)C2
- IC50 (HepG2 [16]): 16300 nM

SMILES: COC1=C(Br)C[C@@]2(OC=C1Br)ON=C(C(=O)NCCCOc1c(Br)cc(C(O)CNC(N)=O)cc1Br)[C@H]2O (stereo partly specified)
- IC50 (HCT-116 [17]): 7000 nM
- IC50 (MDA-MB-231 [18]): 13200 nM
- IC50 (HeLa [19]): 17600 nM

SMILES: CC1=CCC[C@H]2[C@](C)(CC3=C(O)C(=O)C=C(O)C3=O)[C@@H](C)CC[C@]12C
- IC50 (P388 [9]): 3.6 nM

SMILES: O=C1Nc2cc(Br)ccc2[C@@]1(c1cc2ccccc2[nH]1)c1c[nH]c2ccccc12
- IC50 (HT-29 [20]): 12500 nM
- IC50 (OVCAR-3): 9000 nM
- IC50 (MM1.S): 11000 nM

SMILES: COC(=O)c1c[nH]c2ccc(O)cc12
- inhibition (INH) (L5178Y [21]): 36%
- IC50 (L5178Y [22]): 52 nM

SMILES: O[C@]12CCCCCC[C@@H]3CCN4CCC[C@@H](CCCCCC[C@@H]5CCN(CCC1)[C@H]2O5)[C@@H]4O3
- IC50 (BT-474): 9300 nM

SMILES: COC1=C(Br)C[C@]2(OC=C1Br)ON=C(C(=O)NCCCOc1c(Br)cc(CCN)cc1Br)[C@@H]2O [PSAMMAPLYSIN A]
- IC50 (HCT-116 [17]): 8500 nM
- IC50 (MDA-MB-231 [18]): 3900 nM
- IC50 (HeLa [19]): 8500 nM

SMILES: CCCCCCCCCCCCCCCCCCCCC[C@@H](O)[C@@H](O)[C@H](CO)NC(=O)[C@H](O)CCCCCCCCCCCCCCCC
- IC50 (MCF7 [23]): 26800 nM
- IC50 (HepG2 [16]): 24700 nM

SMILES: O=C(O)CCCC#C/C=C/CC/C=C/C#C/C=C/Br
- IC50 (HeLa [24]): 138 nM
- IC50 (Daoy): 76.5 nM

SMILES: CC(=O)O[C@H]1C[C@@H]2[C@@]3(C)CCCC(C)(C)[C@@H]3CC[C@@]2(C)[C@@H]2CC=C(C(C)=O)[C@@H]3[C@@H](O)C[C@@]132
- IC50 (HepG2 [1]): 4.7 nM
- IC50 (HCT-116 [2]): 1.7 nM
- IC50 (MCF7 [3]): 1.3 nM

SMILES: CC[C@@]1(C)CCC[C@]2(C)[C@H]3C[C@H](OC(C)=O)[C@]4(C)[C@H]5CO[C@](C)(O)C5CC[C@H]4[C@]3(C)CC[C@@H]12 (stereo partly specified)
- IC50 (HepG2 [1]): 3.3 nM
- IC50 (HCT-116 [2]): 1.7 nM
- IC50 (MCF7 [3]): 4 nM

SMILES: CC(=O)OC[C@]1(C)CCC[C@]2(C)[C@H]3C[C@@H](O)[C@]4(C)C5=C(CC[C@H]4[C@]3(C)CC[C@@H]12)COC5=O
- IC50 (P388 [10]): 2.2 nM
- IC50 (HT-29 [11]): > 2.2 nM
- IC50 (A549 [12]): 2.2 nM

SMILES: CC[C@@]1(C)CCC[C@]2(C)[C@H]3C[C@H](OC(C)=O)[C@]4(C)C=C(C(C)=O)[C@H](OC(C)=O)C[C@H]4[C@]3(C)CC[C@@H]12
- IC50 (HepG2 [1]): 2.9 nM
- IC50 (HCT-116 [2]): 1.3 nM
- IC50 (MCF7 [3]): 4.8 nM

SMILES: CC(=O)OC1=C(C[C@]2(C)[C@@H](C)CC[C@]3(C)C(C)=CCC[C@@H]23)C(=O)C=CC1=O
- IC50 (P388 [9]): 30 nM

SMILES: CC(=O)O[C@@H]1c2occc2[C@@H](O)C[C@H]2[C@]3(C)CC[C@H]4C(C)(C)CCC[C@]4(C)[C@H]3C[C@@]21C [SALMAHYRTISOL A]
- IC50 (P388 [10]): 2.2 nM
- IC50 (HT-29 [11]): > 2.2 nM
- IC50 (A549 [12]): 2.2 nM

SMILES: COC(=O)[C@@H](C)[C@@H]1CC[C@](C)(CCC(=O)C(C)(C)CCCC(C)=O)OO1 [DIACARPEROXIDE B]
- IC50 (HT-29 [25]): ≥ 1 µg/mL
- IC50 (P388 [26]): ≥ 1 µg/mL
- IC50 (A549 [27]): ≥ 1 µg/mL

From ChEMBL document CHEMBL5149985, “Discovery of cytotoxic natural products from Red Sea sponges: Structure and synthesis” (Eur J Med Chem, 2021)
